Experiments:
[1] = test system: human breast cancer cell line (MDA-MB-231) xenograft; test: Tumor volume in human breast cancer cell line-transplanted mice (Example 11); format: in vivo, mouse; settings: MDA-MB-231 xenograft Balb/c nu/nu mice
[2] = test system: mouse colorectal cancer cell line (CT-26) allograft; test: Tumor volume in mouse colorectal cancer cell line-transplanted mice (Example 13.2); format: in vivo; settings: CT-26 allograft Balb/c mice; WOTS-418 1×10^8 pfu i.p. D0, D3 and 1×10^7 pfu i.t. D14, D21; hydroxyurea 30 mg/kg i.p. once a day
[3] = test system: CD8+ T cells secreting IFN-γ; format: in vivo, mouse; settings: CT-26 allograft Balb/c mice; same doses and regimens as tumor volume test; co-culture with CT-26 cells

hydroxyurea
tumor volume on day 31 relative to the initial tumor volume ([1]; HU 30 mg/kg i.p. twice a day, day 31): ≥ 5 fold | tumor growth (tumor volume measured for 31 days) ([1]; WOTS-418 1×10^7 pfu (D0 i.p., D10 i.t.), hydroxyurea 30 mg/kg i.p. twice a day): tumor growth was not inhibited | tumor volume on day 25 compared with the control group [2]: suppressed tumor volume | CD8+ T cells secreting IFN-γ among spleen CD8+ T cells, compared with control mice (ELISPOT) [3]: abundant

Source: patent US20220202885A1, “ONCOLYTIC VIRUS WITH IMPROVED SAFETY AND […]” (BIONOXX INC., priority 2019, published 2022)
